{
  "source": "patent US7914478B2",
  "about": "“Intrapelvic perfusion therapy with cancer therapeutic agent and apparatus for intrapelvic perfusion with cancer therapeutic agent” (priority 2002, dated 2011)",
  "parameters": "species or system patients",
  "conditions": "human, in vivo",
  "protocol": "The intrapelvic perfusion therapy with cancer therapeutic agent of the present invention was carried out as explained below.\nThe perfusion was continued 30 minutes with keeping the difference between injection and aspiration flow rate was kept 20-25 [ml/min]. After performing this intrapelvic perfusion therapy, the blood of the intrapelvic circulation was dialyzed for 30 min.",
  "data": [
    {"smiles": "N.N.[Cl][Pt][Cl]", "note": "[Cisplatin]", "values": [
      {"measurement": "percentage of drug leading from pelvic to systemic compartment during drug infusion", "result": "about 20%"}
    ]}
  ]
}
